For this assay, the system named is human sebocytes. The assay is described as follows: Sebum suppression: 14C-acetate label remaining in cultured human sebocytes after treatment. It is filed as cell-based. Particulars: for activity at 1 µM / activity at 10 µM / activity at 100 µM / activity at 0.1 µM: read-out: % of Control; for sebum suppressive activity in the presence of retinol: in the presence of retinol / a retinoid versus compound alone. The method, then: Compounds A through K were tested for their potential to suppress sebum expression, alone or in the presence of a retinoid.
Secondary cultures of human sebocytes obtained from an adult […] were grown in 48-well tissue culture plates (Costar Corp.; Cambridge, Mass.) or 96-well tissue culture plates (Packard Co.; Meriden, Conn.) until confluent. Sebocyte growth medium consisted of Clonetics Keratinocyte Basal Medium (KBM) supplemented with 14 μg/ml bovine pituitary extract, 0.4 μg/ml hydrocortisone, 5 μg/ml insulin, […], 1.2×10^-10 M cholera toxin, 100 units/ml penicillin, and 100 μg/ml streptomycin. All cultures were incubated at 37° C. in the presence of 7.5% CO2. Medium was changed three times per week.
On the day of experimentation, the growth medium was removed and the sebocytes washed three times with sterile Dulbecco's Modified Eagle Medium (DMEM; phenol red free). Fresh DMEM was added to each sample (duplicates, triplicates, or quadruplicates depending on the experiment) with 5 microliter of test agent solubilized in ethanol either alone or in the presence of one or 10 micromolar of retinol. Controls consisted of addition of ethanol alone, retinol alone, or phenol red, which has estrogen-like activity and is included as a positive control.
Each plate was returned to the incubator for 20 hours followed by the addition of 14C-acetate buffer (5 mM final concentration, 56 mCi/mmol specific activity). Sebocytes were returned to the incubator for four hours afterwhich each culture was rinsed three times with phosphate buffered saline to remove unbound label. Radioactive label remaining in the sebocytes was harvested and counted using a Beckman scintillation counter.

Setting [1] is: 1 μM test agent + 10 μM Retinol.
[2] abbreviates: 10 μM test agent + 1 μM Retinol.
Where [3] appears, read: 10 μM test agent + 10 μM Retinol.
[4] abbreviates: Homo sapiens, 1 μM test agent + 1 μM Retinol.
The mark [5] stands for this setting: Homo sapiens, 1 μM test agent + 10 μM Retinol.
Where [6] appears, read: Homo sapiens, 1 μM test agent alone.
Where [7] appears, read: Homo sapiens, 10 μM test agent + 1 μM Retinol.
Where [8] appears, read: Homo sapiens, 10 μM test agent + 10 μM Retinol.
Setting [9] is: Homo sapiens, 10 μM test agent alone.
Where [10] appears, read: Homo sapiens, 100 μM test agent + 1 μM Retinol.
Where [11] appears, read: Homo sapiens, 100 μM test agent + 10 μM Retinol.
Setting [12] is: Homo sapiens, 100 μM test agent alone.

Where “and” joins values, the source holds several entries; their conditions need not be identical. Equal entries are not always repeated. Where two headings read alike, the source gives them in different places.

`CC(O)c1cccc(NS(=O)(=O)c2c(F)c(F)c(F)c(F)c2F)c1` (stereo not drawn) [Compound B]: the “% of Control” value is listed as 94.7% (1 μM test agent + 1 μM Retinol); 96.5% under setting [1]; 98.4% (1 μM test agent alone, 1 µM); 90.1% under setting [2]; 84.8% under setting [3]; 89.3% (10 μM test agent alone, 10 µM). Moreover, the activity at 1 µM came out at 90.9% under setting [4], 96.4% under setting [5] and 79.8% under setting [6]. In addition, the activity at 10 µM reads like this: under setting [7], 80.6%; under setting [8], 84.4%; under setting [9], 95.4%. The activity at 100 µM was determined as 75.3% under setting [10], 72.2% under setting [11] and 74.2% under setting [12].

For `CN(C)c1cccc(NS(=O)(=O)c2ccc3ccccc3c2)c1` [Compound J], the “% of Control” value runs as follows: under setting [1], 67.9% and 93.8%; (1 μM test agent alone, 1 µM) 55.6%; under setting [3], 69.8%; (10 μM test agent alone, 10 µM) 81.7%. The activity at 1 µM stood at 74.1% under setting [4] and 74.6% under setting [6]. The activity at 10 µM came out at 64.7% under setting [7], 63.9% under setting [8] and 67.5% under setting [9]. Also, the activity at 100 µM under setting [11] is 2% and the activity at 100 µM under setting [12] turned out to be 1.2%.

With `CC1=C(/C=C/C(C)=C/C=C/C(C)=C/CO)C(C)(C)CCC1` [Retinol, retinol, reference compound], the “% of Control” value (1 μM test agent alone, 1 µM) was 85.5% and 96.5% and 99.9% and 103.7% and 99.3% and 93.9%. Besides, the activity at 1 µM under setting [6] amounted to 98.4%. Besides, where the note is “alone, 1 or 10 μM”, the sebum suppressive activity entry was “inactive”.

Consider `O=S1(=O)OC(c2ccc(O)cc2)(c2ccc(O)cc2)c2ccccc21` [Phenol Red, phenol red, reference compound], for which the “% of Control” value is, setting by setting: (28 μM (positive control) alone, 28 µM) 74.7% and 68.4% and 84.4%; (280 μM (positive control) alone) 54.2% and 52.5%. Moreover, the activity at 28 µM (Homo sapiens, 28 μM (positive control) alone) is 67.6%.

In the case of `COc1ccc(S(=O)(=O)Nc2cccc(C(C)O)c2)cc1` (stereo not drawn) [Compound A], the “sebum suppressive activity in the presence of retinol” value is on record as “improved sebum suppressive activity”. Moreover, the “% of Control” value (1 μM test agent + 1 μM Retinol) was 102.5%. Also, the “% of Control” value under setting [1] was found to be 94.6%. The “% of Control” value (1 μM test agent alone, 1 µM) is given as 100.7%. Besides, the “% of Control” value under setting [2] is recorded as 65.8%. Besides, the “% of Control” value (10 μM test agent alone, 10 µM) came out at 91.9%. The activity at 1 µM under setting [4] was found to be 112%. For the same compound, the activity at 1 µM under setting [5] turned out to be 101%. Besides, the activity at 1 µM under setting [6] turned out to be 111%. The activity at 10 µM under setting [7] came out at 46%. For the same compound, the activity at 10 µM under setting [9] worked out at 109%.

On to `CC(O)c1cccc(NS(=O)(=O)c2cccc3c(N(C)C)cccc23)c1` (stereo not drawn) [Compound D], for which the “sebum suppressive activity in the presence of retinol” value was “improved sebum suppressive activity”. Under setting [1], the “% of Control” value stood at 102.8%. Further, the “% of Control” value (1 μM test agent alone, 1 µM) is 126.4% and 102.4%. Moreover, the “% of Control” value (10 μM test agent alone, 10 µM) is 71.6% and 43.3%. Moreover, under setting [4], the activity at 1 µM was 102%. For the same compound, the activity at 1 µM under setting [5] is 89.1%. In addition, the activity at 10 µM under setting [7] is 60.8%. Further, the activity at 100 µM under setting [11] turned out to be 1.2%. Also, the activity at 100 µM under setting [12] worked out at 6.7%.

Regarding `CN(C)c1cccc(NS(=O)(=O)c2ccc(Cl)c([N+](=O)[O-])c2)c1` [Compound H], the “% of Control” value was 88.0% and 90.2% and 65.1% (1 μM test agent + 1 μM Retinol); 86.8% and 78.8% and 53.6% and 91.1% under setting [1]; 96.1% and 71.7% and 66.6% and 83.4% (1 μM test agent alone, 1 µM); 80.3% and 76.1% and 79.2% and 118.0% under setting [3]. Further, the activity at 100 µM reads like this: under setting [11], 3.9%; under setting [12], 44.2%.

For `O=[N+]([O-])c1cc(S(=O)(=O)Nc2ccc3c(c2)OCCO3)ccc1Cl` [Compound F], the “% of Control” value is 100.4% and 75.9% (1 μM test agent + 1 μM Retinol); 74.2% under setting [1]; 80.7% (1 μM test agent alone, 1 µM); 1.8% and 0.6% under setting [2]. Also, the activity at 1 µM under setting [5] was 89.1% and the activity at 1 µM under setting [6] was determined as 79.6%. Besides, under setting [8], the activity at 10 µM amounted to 1.2%.

`CC(O)c1cccc(NS(=O)(=O)c2ccc(Cl)c([N+](=O)[O-])c2)c1` (stereo not drawn) [Compound C]: the “sebum suppressive activity in the presence of retinol” value is “improved sebum suppressive activity”. Further, the activity at 1 µM under setting [4] amounted to 87.7%. In addition, the activity at 1 µM under setting [5] came out at 77.5%. Moreover, the activity at 1 µM under setting [6] worked out at 101%. For the same compound, under setting [7], the activity at 10 µM was found to be 95.5%. Besides, under setting [8], the activity at 10 µM stood at 84.8%. Also, the activity at 10 µM under setting [9] was determined as 79%. The activity at 100 µM under setting [10] was determined as 20.8%. Further, the activity at 100 µM under setting [11] is 5.3%. Moreover, the activity at 100 µM under setting [12] was determined as 37.8%.

With `CC(O)c1cccc(NS(=O)(=O)c2cccs2)c1` (stereo not drawn) [Compound E], the “% of Control” value (1 μM test agent + 1 μM Retinol) is recorded as 98.3%; the “% of Control” value under setting [1] is listed as 110.2%; the “% of Control” value (1 μM test agent alone, 1 µM) is given as 103.3%; the “% of Control” value under setting [2] is 5.7% and 1.6%. The activity at 1 µM turned out to be 103% under setting [4], 102% under setting [5] and 94.6% under setting [6].

`O=S(=O)(Nc1ccc2c(c1)OCCO2)c1ccc2ccccc2c1` [Compound G]: the “sebum suppressive activity in the presence of retinol” value is “improved sebum suppressive activity”. The “% of Control” value (1 μM test agent alone, 1 µM) turned out to be 82.0%. Also, under setting [2], the “% of Control” value was determined as 39.9%. Further, under setting [3], the “% of Control” value is listed as 13.1%. In addition, the “% of Control” value (10 μM test agent alone, 10 µM) was 45.7% and 25.0%. The activity at 0.1 µM (Homo sapiens, 0.1 μM test agent + 1 μM Retinol) is 103%. Also, the activity at 0.1 µM (Homo sapiens, 0.1 μM test agent + 10 μM Retinol) was 94.1%. Under “Homo sapiens, 0.1 μM test agent alone, 14C-acetate label in sebocytes”, the activity at 0.1 µM is 101%. Besides, the activity at 1 µM under setting [6] worked out at 67.5%. Besides, the activity at 10 µM under setting [7] is 24.8%. For the same compound, the activity at 10 µM under setting [8] is 17.9%.

(Values after patent publication US20020025332A1, “Cosmetic compositions containing substituted sulfonamide derivatives” (Unilever Home & Personal Care USA, Division of Conopco, Inc., priority 2000, published 2002).)
